Broadly, the EC50 is the concentration giving half of the maximal effect. Read a high EC50 as weaker potency.

The record followed here is article PMC13596996 (Cell, 2026).

This assay concerns GABAA receptor. In words: whole-cell voltage-clamp, dose-response, blocked by gabazine. Also on record: species or system Mus musculus.

As to `[H]/N=C(/N)NCC(=O)O` [GAA, guanidinoacetate], it took 134 µM to reach a half-maximal effect (EC50).
